The source of these data is ChEMBL document CHEMBL2390902, “Discovery of 1-(1,3,5-triazin-2-yl)piperidine-4-carboxamides as inhibitors of soluble epoxide hydrolase” (Bioorg Med Chem Lett, 2013).

The target in data set [1] is Substance-K receptor (Homo sapiens) (UniProt P21452). Description: Inhibition of human NK2 receptor at 1 uM relative to control.
The target of data set [2] is T1, Bifunctional epoxide hydrolase 2 (Homo sapiens, UniProt P34913).
T1 sequence (P34913 whole entry): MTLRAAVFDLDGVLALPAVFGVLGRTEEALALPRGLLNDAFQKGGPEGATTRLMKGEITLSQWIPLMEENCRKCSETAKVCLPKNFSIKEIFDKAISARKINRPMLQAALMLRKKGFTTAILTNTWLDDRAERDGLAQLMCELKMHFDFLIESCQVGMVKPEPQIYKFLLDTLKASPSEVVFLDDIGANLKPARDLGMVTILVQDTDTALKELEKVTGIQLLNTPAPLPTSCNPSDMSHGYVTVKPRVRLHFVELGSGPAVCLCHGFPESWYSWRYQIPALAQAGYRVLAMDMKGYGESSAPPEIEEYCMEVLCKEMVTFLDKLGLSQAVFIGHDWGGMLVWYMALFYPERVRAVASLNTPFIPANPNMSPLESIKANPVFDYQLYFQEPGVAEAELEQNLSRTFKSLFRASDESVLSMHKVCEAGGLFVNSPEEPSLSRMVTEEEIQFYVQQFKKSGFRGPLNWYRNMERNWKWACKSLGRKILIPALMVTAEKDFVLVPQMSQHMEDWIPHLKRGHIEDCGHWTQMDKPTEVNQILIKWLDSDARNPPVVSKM
Description: Inhibition of human soluble epoxide hydrolase overexpressed in HEK293F cells using EET as substrate assessed as formation of DHET incubated for 30 mins prior to substrate addition measured after 60 mins by ELISA

In data set [3] the target is Sodium-dependent noradrenaline transporter (Homo sapiens) (UniProt P23975). Briefly: Inhibition of human norepinephrine transporter at 1 uM relative to control.
Sequence of Sodium-dependent noradrenaline transporter (Homo sapiens) (P23975 whole entry): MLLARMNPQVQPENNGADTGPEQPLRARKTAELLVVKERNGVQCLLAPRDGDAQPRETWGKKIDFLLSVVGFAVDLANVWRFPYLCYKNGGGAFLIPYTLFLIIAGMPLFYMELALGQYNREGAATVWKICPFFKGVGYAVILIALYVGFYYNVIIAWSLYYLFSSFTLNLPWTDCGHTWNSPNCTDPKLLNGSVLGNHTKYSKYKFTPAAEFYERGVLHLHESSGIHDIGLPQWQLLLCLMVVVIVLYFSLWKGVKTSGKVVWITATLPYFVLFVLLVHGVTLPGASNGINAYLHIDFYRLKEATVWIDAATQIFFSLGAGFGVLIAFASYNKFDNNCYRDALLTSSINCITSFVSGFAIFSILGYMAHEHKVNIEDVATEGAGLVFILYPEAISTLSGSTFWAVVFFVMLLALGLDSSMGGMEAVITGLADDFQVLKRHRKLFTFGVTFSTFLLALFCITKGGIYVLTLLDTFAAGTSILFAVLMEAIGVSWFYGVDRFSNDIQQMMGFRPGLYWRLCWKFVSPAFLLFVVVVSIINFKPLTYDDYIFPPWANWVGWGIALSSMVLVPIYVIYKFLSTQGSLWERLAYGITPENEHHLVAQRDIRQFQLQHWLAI
Data set [4] can be described thus: Cmax in rat at 0.2 mg/kg, po. Format: ADME, organism-based. More on the design: dose 0.2 mg/kg, route oral. To be noted: in vivo.
Data set [5] in a line: Plasma clearance in rat at 2 mg/kg, iv. Format: ADME, organism-based. On the set-up: dose 2 mg/kg, route intravenous.
Data set [6] addresses Kappa-type opioid receptor (Homo sapiens) (UniProt P41145). Briefly: Inhibition of human kappa opioid receptor at 1 uM relative to control.
Another data set has as its system Rattus norvegicus. Briefly: Free maximum concentration of drug in rat at 2 mg/kg, po. It counts as ADME, organism-based. More on the design: dose 2 mg/kg, route oral. To be noted: in vivo.
The target of data set [7] is Adenosine receptor A3 (Homo sapiens) (UniProt P0DMS8). Description: Inhibition of human adenosine A3 receptor at 1 uM relative to control.
Sequence of Adenosine receptor A3 (Homo sapiens) (P0DMS8 whole entry): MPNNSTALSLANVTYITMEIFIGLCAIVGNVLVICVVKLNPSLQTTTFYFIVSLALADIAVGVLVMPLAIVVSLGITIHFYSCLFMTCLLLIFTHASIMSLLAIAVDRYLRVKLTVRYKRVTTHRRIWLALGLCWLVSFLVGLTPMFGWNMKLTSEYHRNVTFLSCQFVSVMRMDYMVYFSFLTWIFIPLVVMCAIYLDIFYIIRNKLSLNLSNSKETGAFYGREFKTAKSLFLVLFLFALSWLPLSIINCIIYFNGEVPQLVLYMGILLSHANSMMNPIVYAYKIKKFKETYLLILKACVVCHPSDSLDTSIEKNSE
For the next data set, the species on record is Homo sapiens. Briefly: Inhibition of human chloride channel at 1 uM relative to control.
Data set [8] is described as follows: Half life in rat at 2 mg/kg, iv. Format: ADME, organism-based. On the set-up: dose 2 mg/kg, route intravenous. Conditions: in vivo.
The target in data set [9] is Muscarinic acetylcholine receptor M1 (Homo sapiens) (UniProt P11229). Briefly: Inhibition of human M1 receptor at 1 uM relative to control.
Sequence of Muscarinic acetylcholine receptor M1 (Homo sapiens) (P11229 whole entry): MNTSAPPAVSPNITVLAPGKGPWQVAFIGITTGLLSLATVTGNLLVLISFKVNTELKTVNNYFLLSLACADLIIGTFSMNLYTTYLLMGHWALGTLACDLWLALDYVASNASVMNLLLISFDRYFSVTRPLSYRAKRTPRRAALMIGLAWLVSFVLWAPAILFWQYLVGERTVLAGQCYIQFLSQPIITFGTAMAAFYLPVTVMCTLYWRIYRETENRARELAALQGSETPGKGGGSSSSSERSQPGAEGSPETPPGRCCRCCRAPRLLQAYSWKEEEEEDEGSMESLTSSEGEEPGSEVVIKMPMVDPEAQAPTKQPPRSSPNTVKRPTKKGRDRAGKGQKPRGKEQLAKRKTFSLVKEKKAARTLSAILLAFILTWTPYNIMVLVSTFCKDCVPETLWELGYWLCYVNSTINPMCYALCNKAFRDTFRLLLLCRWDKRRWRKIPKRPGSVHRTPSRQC
Data set [10] deals with 5-hydroxytryptamine receptor 1A (Homo sapiens) (UniProt P08908). Description: Inhibition of human 5-HT1A receptor at 1 uM relative to control.
Sequence of 5-hydroxytryptamine receptor 1A (Homo sapiens) (P08908 whole entry): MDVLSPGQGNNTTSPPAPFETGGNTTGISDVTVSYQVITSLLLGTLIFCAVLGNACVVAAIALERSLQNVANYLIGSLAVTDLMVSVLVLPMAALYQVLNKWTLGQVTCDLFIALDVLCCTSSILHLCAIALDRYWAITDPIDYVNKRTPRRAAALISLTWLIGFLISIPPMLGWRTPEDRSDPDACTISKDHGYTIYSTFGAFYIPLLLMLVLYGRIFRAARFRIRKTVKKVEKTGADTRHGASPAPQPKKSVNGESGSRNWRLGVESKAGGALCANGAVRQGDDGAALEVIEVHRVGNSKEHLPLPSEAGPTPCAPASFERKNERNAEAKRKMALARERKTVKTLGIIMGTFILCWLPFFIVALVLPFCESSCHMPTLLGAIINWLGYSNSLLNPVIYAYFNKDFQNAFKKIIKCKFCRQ
For data set [11], the target named is Melatonin receptor type 1A (Homo sapiens) (UniProt P48039). Briefly: Inhibition of human MT1 receptor at 1 uM relative to control.
Sequence of Melatonin receptor type 1A (Homo sapiens) (P48039 whole entry): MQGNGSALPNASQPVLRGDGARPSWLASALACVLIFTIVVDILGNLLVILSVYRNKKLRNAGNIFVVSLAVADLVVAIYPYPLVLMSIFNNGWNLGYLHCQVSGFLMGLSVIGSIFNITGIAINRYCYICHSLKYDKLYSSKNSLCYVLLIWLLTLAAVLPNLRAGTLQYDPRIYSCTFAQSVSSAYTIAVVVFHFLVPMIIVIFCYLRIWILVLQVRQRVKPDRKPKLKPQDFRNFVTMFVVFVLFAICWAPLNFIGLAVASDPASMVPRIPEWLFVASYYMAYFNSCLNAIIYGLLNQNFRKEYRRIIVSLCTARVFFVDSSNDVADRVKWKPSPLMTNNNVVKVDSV
In data set [12] the target is Beta-2 adrenergic receptor (Homo sapiens) (UniProt P07550). Briefly: Inhibition of human beta2 receptor at 1 uM relative to control.
Sequence of Beta-2 adrenergic receptor (Homo sapiens) (P07550 whole entry, looked up): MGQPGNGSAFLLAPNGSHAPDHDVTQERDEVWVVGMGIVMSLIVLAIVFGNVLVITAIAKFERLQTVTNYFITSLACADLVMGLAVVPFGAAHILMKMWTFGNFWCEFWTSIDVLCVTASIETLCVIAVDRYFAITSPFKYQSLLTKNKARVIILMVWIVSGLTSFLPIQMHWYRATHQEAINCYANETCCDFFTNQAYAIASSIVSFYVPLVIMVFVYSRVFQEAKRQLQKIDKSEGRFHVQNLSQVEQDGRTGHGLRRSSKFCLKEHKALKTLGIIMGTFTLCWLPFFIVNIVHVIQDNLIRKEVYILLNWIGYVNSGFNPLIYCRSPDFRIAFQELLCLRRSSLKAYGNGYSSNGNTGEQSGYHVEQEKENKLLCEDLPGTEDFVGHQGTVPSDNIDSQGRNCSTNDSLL
The target of data set [13] is T1, Bifunctional epoxide hydrolase 2. The source holds these as a separate data set.
Description: Inhibition of human soluble epoxide hydrolase using PHOME as substrate assessed as formation of 6-methoxy-2-naphthaldehyde incubated for 10 mins prior to substrate addition measured with in 30 mins by fluorescence assay
The target of data set [14] is Muscarinic acetylcholine receptor M4 (Homo sapiens) (UniProt P08173). Description: Inhibition of human M4 receptor at 1 uM relative to control.
Sequence of Muscarinic acetylcholine receptor M4 (Homo sapiens) (P08173 whole entry): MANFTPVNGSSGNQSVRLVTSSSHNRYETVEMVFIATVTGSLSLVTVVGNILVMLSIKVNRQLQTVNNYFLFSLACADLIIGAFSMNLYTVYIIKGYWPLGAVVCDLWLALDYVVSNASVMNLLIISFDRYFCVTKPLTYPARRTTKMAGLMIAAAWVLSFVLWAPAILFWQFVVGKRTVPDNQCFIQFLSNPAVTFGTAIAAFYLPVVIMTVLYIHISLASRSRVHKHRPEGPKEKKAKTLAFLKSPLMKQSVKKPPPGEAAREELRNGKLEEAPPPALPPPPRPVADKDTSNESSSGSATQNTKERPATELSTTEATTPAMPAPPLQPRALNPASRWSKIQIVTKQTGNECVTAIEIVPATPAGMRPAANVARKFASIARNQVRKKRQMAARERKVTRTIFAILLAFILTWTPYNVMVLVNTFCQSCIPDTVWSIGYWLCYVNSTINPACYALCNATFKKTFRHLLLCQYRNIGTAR
Data set [15] concerns the target Histamine H2 receptor (Homo sapiens) (UniProt P25021). Description: Inhibition of human histamine H2 receptor at 1 uM relative to control.
In data set [16] the target is Muscarinic acetylcholine receptor M2 (Homo sapiens) (UniProt P08172). Briefly: Inhibition of human M2 receptor at 1 uM relative to control.
Sequence of Muscarinic acetylcholine receptor M2 (Homo sapiens) (P08172 whole entry): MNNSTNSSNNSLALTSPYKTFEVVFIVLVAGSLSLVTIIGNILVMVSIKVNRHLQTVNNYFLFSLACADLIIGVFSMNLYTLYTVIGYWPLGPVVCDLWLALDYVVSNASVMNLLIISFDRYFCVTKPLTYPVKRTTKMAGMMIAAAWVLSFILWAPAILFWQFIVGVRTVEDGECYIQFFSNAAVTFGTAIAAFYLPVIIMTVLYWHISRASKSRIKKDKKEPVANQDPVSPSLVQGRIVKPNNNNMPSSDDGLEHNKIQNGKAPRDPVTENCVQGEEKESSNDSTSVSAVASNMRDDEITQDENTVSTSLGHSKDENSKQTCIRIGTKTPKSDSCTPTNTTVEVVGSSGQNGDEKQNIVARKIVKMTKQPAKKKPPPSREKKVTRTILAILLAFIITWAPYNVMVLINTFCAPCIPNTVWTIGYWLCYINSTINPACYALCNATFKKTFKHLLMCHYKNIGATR

Sequence of Substance-K receptor (Homo sapiens) (P21452 whole entry): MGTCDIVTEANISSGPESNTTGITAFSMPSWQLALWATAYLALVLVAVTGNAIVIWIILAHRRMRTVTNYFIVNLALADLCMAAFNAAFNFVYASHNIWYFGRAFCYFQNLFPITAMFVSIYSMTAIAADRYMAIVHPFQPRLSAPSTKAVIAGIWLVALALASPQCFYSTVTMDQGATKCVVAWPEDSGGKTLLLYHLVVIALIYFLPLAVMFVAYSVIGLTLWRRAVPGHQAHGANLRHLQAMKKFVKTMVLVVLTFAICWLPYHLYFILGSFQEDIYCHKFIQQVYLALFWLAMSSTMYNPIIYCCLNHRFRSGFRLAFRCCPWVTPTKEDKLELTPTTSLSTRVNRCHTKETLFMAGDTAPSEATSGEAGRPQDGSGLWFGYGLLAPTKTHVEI
Sequence of Histamine H2 receptor (Homo sapiens) (P25021 whole entry): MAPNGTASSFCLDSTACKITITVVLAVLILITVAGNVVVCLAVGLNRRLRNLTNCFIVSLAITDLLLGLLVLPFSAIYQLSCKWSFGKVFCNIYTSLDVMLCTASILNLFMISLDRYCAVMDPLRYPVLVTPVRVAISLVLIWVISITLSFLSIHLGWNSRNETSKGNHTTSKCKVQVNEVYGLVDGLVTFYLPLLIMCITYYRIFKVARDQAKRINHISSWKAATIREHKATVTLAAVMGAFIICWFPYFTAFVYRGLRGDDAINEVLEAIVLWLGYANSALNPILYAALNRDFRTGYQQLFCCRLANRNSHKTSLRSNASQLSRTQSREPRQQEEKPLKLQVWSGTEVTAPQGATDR
Sequence of Kappa-type opioid receptor (Homo sapiens) (P41145 whole entry): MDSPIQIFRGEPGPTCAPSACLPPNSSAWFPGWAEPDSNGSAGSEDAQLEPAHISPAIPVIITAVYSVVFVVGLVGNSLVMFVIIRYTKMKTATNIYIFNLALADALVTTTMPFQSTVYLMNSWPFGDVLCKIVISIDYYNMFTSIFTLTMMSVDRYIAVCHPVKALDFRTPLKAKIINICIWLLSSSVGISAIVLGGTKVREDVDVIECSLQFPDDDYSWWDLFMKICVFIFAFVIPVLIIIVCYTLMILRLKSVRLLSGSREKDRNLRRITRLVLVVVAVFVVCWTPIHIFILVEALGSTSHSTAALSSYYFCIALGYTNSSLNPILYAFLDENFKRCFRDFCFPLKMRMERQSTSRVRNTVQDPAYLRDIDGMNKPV

As for `CNc1nc(C)nc(N2CCC(C(=O)NCc3ccc(Br)cc3OC(F)(F)F)CC2)n1`, the inhibition (in [1]; in data set [3]; in data set [6]; in data set [7]; in the data set listed under Homo sapiens; in data set [9]) was below 50% in each case. Also, the inhibition in data set [10], in data set [11], in data set [12], in data set [14], in data set [15] and in data set [16] was below 50% throughout. Also, the figures for the IC50 in data set [2] and in data set [13] were 3 nM and 0.5 nM, respectively. The Cmax – broadly, the peak of the concentration-time curve – in data set [4] stood at 16 nM. For the same compound, in data set [5], the clearance – broadly, the rate of elimination divided by the concentration – came out at 12 mL/min/kg. In the data set with Rattus norvegicus, the fCmax came out at 3 nM. In addition, the half-life (in general, the time in which the quantity being followed falls by half) in data set [8] was 4.6 h.
